Legend:
[1] = system: dermal fibroblasts; conditions: cited from earlier work
Text: Hoffmeister Effect of solute[12] is one of the known phenomena to control the hydration level of self-assembled amphiphiles. Chaotropic solutes (water structure breakers) such as sodium thiocyanate (NaSCN) and 1,3-butanediol (1,3-BG) make the membrane curvature positive. On the other hand, kosmotropic solutes (water structure maker ...

[2] = 0 °C (SOPC Tc 6 °C, gel state), CLSM observation; cited from earlier work
[3] = Leakage of internalized FITC-R8 and rhodamine from GUV; conditions: EPC GUV, L/P = 1000, 10 min, 37 °C, different osmotic pressures, with or without FITC-R8 in outer medium, fluorescence Ex 555/Em 575 nm, n = 5
Procedure: GUVs were prepared by the freeze-melting and natural swelling method[23]. Lipids dissolved in chloroform were placed into the vials, and then the solvent was evaporated. After being dried in vacuo for 16 h in the dark, lipid films were hydrated with 0.01 mg/mL of Rho/3 M KCl solution to give 20 mM lipid concentration. […] The suspension was vortexed for 1 min. This step (from freezing to vortexing) was repeated six times. It was transferred to a dialysis membrane (UC-8-32-25; Viskase Co. Ltd., Chicago, USA) and dialyzed against 20% PBS for at least two days at room temperature and, the dialysis solution was daily replaced by a new one. In this study, 20% PBS is defined as ‘isotonic solution’ and PBS solution at concentrations less than 20% as ‘hypotonic solution’ and at higher than 20% as ‘hypertonic solution’.
Penetration assay of CPP into GUV was conducted in the same manner previously reported[23]. […] The ratio of penetrated FITC-R8 and Rho leakage ratio was calculated using the following equations:1 P=A/U×100 2 L=IL-Rho/IL-Rho+INL-Rho×100
In Eq. (1), P is the penetrated ratio of FITC-R8 ratio, A is the amount of penetrated FITC-R8 into GUV calculated using the standard curve, and U is the amount of FITC-R8 used in this experiment. In Eq. (2), L is the leaked Rho ratio, and IL-Rho and INL-Rho are the fluorescence intensities of leaked and non-leaked Rho.

[4] = parameters: method as in doi:10.1246/cl.2012.1078; conditions: under the tested conditions, regardless of osmotic pressure change; cited from earlier work

Compound: N=C(N)NCCC[C@H](NC(=O)[C@H](CCCNC(=N)N)NC(=O)[C@H](CCCNC(=N)N)NC(=O)[C@H](CCCNC(=N)N)NC(=O)[C@H](CCCNC(=N)N)NC(=O)[C@H](CCCNC(=N)N)NC(=O)[C@H](CCCNC(=N)N)NC(=O)[C@H](CCCNC(=N)N)NC(=O)CCCNC(=S)Nc1ccc2c(c1)C(=O)OC21c2ccc(O)cc2Oc2cc(O)ccc21)C(=O)O [FITC-R8]
- cell viability with chaotropic solutes (NaSCN, 1,3-BG) [1]: without interfering with cell viability
- cytolysis to SOPC GUV [2]: no cytolysis

Compound: CCN(CC)c1ccc2c(-c3ccccc3C(=O)O)c3ccc(=[N+](CC)CC)cc-3oc2c1 [rhodamine, Rhodamine B]
- leakage of rhodamine pre-encapsulated in the GUV [3]: very low and consistent

Compound: fluorescein isothiocyanate [FITC]
- permeation through the membrane into the cytosol [4]: could not permeate through the membrane

— publication PMC7794472, “Direct entry of cell-penetrating peptide can be controlled by maneuvering the membrane curvature” (Scientific Reports, 2021)
